{"source": "patent US20170209492A1", "about": "“SUBSET-OPTIMIZED CHIMERIC ANTIGEN RECEPTOR-CONTAINING T-CELLS” (NOVARTIS AG, priority 2014, published 2017)", "key": {"huCAR19 CAR T cells": {"system": "huCAR19 CAR T cells", "experiment": "in vivo proliferation of humanized CD19 CART cells with RAD001 dosing", "parameters": "species or system NSG mice", "method": "(§1) Tumor implantation: NALM6-luc cells were grown and expanded in vitro in RPMI supplemented with 10% heat inactivated fetal bovine serum. The cells were then transferred to a 15 ml conical tube and washed twice with cold sterile PBS. NALM6-luc cells were then counted and resuspended at a concentration of 10×10^6 cells per milliliter of PBS. The cells were placed on ice and immediately (within one hour) implanted in the mice. NALM6-luc cells were injected intravenously via the tail vein in a 100 μl volume, for a total of 1×10^6 cells per mouse.\nCAR T cell dosing: Mice were administered 5×10^6 CAR T cells 7 days after tumor implantation. Cells were partially thawed in a 37 degree Celsius water bath and then completely thawed by the addition of 1 ml of cold sterile PBS to the tube containing the cells. The thawed cells were transferred to a 15 ml falcon tube and adjusted to a final volume of 10 mls with PBS. The cells were washed twice at 1000 rpm for 10 minutes each time and then counted on a hemocytometer. T cells were then resuspended at a concentration of 50×10^6 CAR T cells per ml of cold PBS and kept on ice until the mice were dosed. The mice were injected intravenously via the tail vein with 100 μl of the CAR T cells for a dose of 5×10^6 CAR T cells per mouse. Eight mice per group were treated either with 100 μl of PBS alone (PBS), or humanized CD19 CAR T cells.\n(§2) RAD001 dosing: A concentrated micro-emulsion of 50 mg equal to 1 mg RAD001 was formulated and then resuspended in D5W (dextrose 5% in water) at the time of dosing. Mice were orally dosed daily (via oral gavage) with 200 μl of the desired doses of RAD001.\nBased on these doses, huCAR19 CAR T cells were dosed with and without RAD001 to determine the proliferative ability of these cells. The highest dose used was 3 mg/kg based on the levels of RAD001 in the blood 24 hours after dosing. As the concentration of RAD001 was above 10 nM 24 hours after the final dose of RAD001, several lower doses of RAD001 were used in the in vivo study with CAR T cells. The CAR T cells were dosed IV one day prior to the start of the daily oral RAD001 dosing. Mice were monitored via FACS for T cell expansion."}, "NALM6-luc tumors": {"system": "NALM6-luc tumors", "experiment": "NALM6-luc tumor growth with daily RAD001 dosing", "format": "in vivo, NSG mice", "details": "daily oral dosing of RAD001 alone, 0.3, 1, 3 and 10 mg/kg", "method": "NALM6-luc cells: The NALM6 human acute lymphoblastic leukemia (ALL) cell line was developed from the peripheral blood of a patient with relapsed ALL. The cells were then tagged with firefly luciferase. These suspension cells grow in RPMI supplemented with 10% heat inactivated fetal bovine serum.\nMice: 6 week old NSG (NOD.Cg-PrkdcscidIl2rgtmlWj1/SzJ) mice were received from the Jackson Laboratory (stock number 005557).\nas §1, §2"}, "[1]": {"system": "huCART19 cells co-cultured with NALM6 (Nalm-6)", "experiment": "CART proliferation in 4 day co-culture assay with RAD001", "format": "cell-based, human", "details": "for proliferation of huCART19 cells: 4 day co-culture", "method": "To evaluate the functionality of CARTs, the T cells are thawed and counted, and viability is assessed by Cellometer. The number of CAR-positive cells in each culture is normalized using non-transduced T cells (UTD). The impact of RAD001 on CARTs was tested in titrations with RAD001, starting at 50 nM. The target cell line used in all co-culture experiments is NALM6 (Nalm-6), a human pre-B cell acute lymphoblastic leukemia (ALL) cell line expressing CD19 and transduced to express luciferase.\nFor measuring the proliferation of CARTs, T cells are cultured with target cells at a ratio of 1:1. The assay is run for 4 days, when cells are stained for CD3, CD4, CD8 and CAR expression. The number of T cells is assessed by flow cytometry using counting beads as reference."}, "[2]": {"experiment": "pharmacokinetic analysis of RAD001 in blood", "format": "in vivo, NSG mice", "method": "as §2\nPK analysis: Mice were dosed daily with RAD001 starting 7 days post tumor implantation. Dosing groups were as follows: 0.3 mg/kg, 1 mg/kg, 3 mg/kg, and 10 mg/kg. Mice were bled on days 0 and 14 following the first and last dose of RAD001, at the following time points for PK analysis: 15 minutes, 30 minutes, 1 hour, 2 hours, 4 hours, 8 hours, 12 hours, and 24 hours."}}}
{"smiles": "CO[C@H]1C[C@@H]2CC[C@@H](C)[C@@](O)(O2)C(=O)C(=O)N2CCCC[C@H]2C(=O)O[C@H]([C@H](C)C[C@@H]2CC[C@@H](OCCO)[C@H](OC)C2)CC(=O)[C@H](C)/C=C(\\C)[C@@H](O)[C@@H](OC)C(=O)[C@H](C)C[C@H](C)/C=C/C=C/C=C/1C", "note": "[RAD001, (1R,9S,12S,15R,16E,18R,19R,21R,23S,24E,26E,28E,30S,32S,35R)-1,18-dihydroxy-12-{(1R)-2-[(1S ,3R,4R)-4-(2-hydroxyethoxy)-3-methoxycyclohexyl]-1-methylethyl}-19,30-dimethoxy-15,17,21,23,29,35-hexamethyl-11,36-dioxa-4-aza-tricyclo[30.3.1.04,9]hexatriaconta-16,24,26,28-tetraene-2,3,10,14,20-pentaone]", "values": [{"measurement": "CAR T cell proliferation in vivo", "setting": "huCAR19 CAR T cells; RAD001 0.003 mg/kg daily, above the normal level of huCAR19 proliferation", "result": "enhancement"}, {"measurement": "proliferation of CD8+ CAR T cells in vivo", "setting": "huCAR19 CAR T cells; lowest doses of RAD001", "result": "enhanced proliferation can be seen at early time points"}, {"measurement": "proliferation of the CAR T cells in vivo", "setting": "huCAR19 CAR T cells; lowest doses of RAD001, daily oral, huCAR19 dosed IV", "result": "enhanced proliferation"}, {"measurement": "proliferation of CD4+ CAR T cells in vivo", "setting": "huCAR19 CAR T cells; lowest doses of RAD001, compared with CD8+ CAR T cells", "result": "more evident and prolonged"}, {"measurement": "growth of NALM6-luc tumors", "setting": "NALM6-luc tumors", "result": "did not have an impact"}, {"measurement": "proliferation of huCART19 cells", "setting": "[1]; 0.0032 nM RAD001", "result": "higher than observed without the addition of RAD001"}, {"measurement": "proliferation of huCART19 cells", "setting": "[1]; 0.016 nM RAD001", "result": "higher than observed without the addition of RAD001"}, {"measurement": "proliferation of CAR-expressing, transduced T cells", "setting": "[1]; low doses of RAD001, 4 days of co-culture", "result": "enhanced"}, {"measurement": "concentration at 24 h", "setting": "[2]; NSG, mouse, blood, lowest dose tested (0.3 mg/kg), oral, read-out: RAD001 concentration in the blood 24 hours after dosing", "result": "> 10", "unit": "nM"}, {"measurement": "concentration of RAD001 24 hours after the final dose", "setting": "[2]; after the final dose of RAD001", "result": "above 10 nM"}, {"measurement": "stability in the blood of tumor bearing mice", "setting": "[2]; daily oral dosing", "result": "fairly stable"}, {"measurement": "RAD001 concentration in the blood 24 hours after dosing", "setting": "[2]; day 14, lowest dose tested (0.3 mg/kg), oral", "result": "above 10 nm"}]}
